# Activity calls are given as the source filed them. No cut-off for these calls is given here.
# Key:
# Mus musculus [1] = assay: Reduction in total AR isoforms in tumor lysates of NSG mouse xenografted with human VCaP cells at 10 mg/kg, po administered via gavage with 5 days on and 2 days off dosing schedule for 6 weeks by immunoblot analysis; type: functional, organism-based; conditions: Neoplasm
# Mus musculus [2] = assay: Reduction in AR-V7 level in tumor lysates of NSG mouse xenografted with human VCaP cells at 10 mg/kg, po co-administered with 25 mg/kg AR antagonist MDV via gavage with 5 days on and 2 days off dosing schedule for 6 weeks by immunoblot analysis; type: functional, organism-based; conditions: Neoplasm
# VCaP [3] = assay: Recovery of DHT-suppressed full length AR mRNA expression in human VCaP cells at 10 uM preincubated for 24 hrs with DHT followed by wash-out and then incubated with compound for 24 hrs by RT-qPCR analysis; type: functional, cell-based
# VCaP [4] = assay: Antiproliferative activity against human VCaP cells assessed as reduction in cell viability at 1 to 10 uM after 14 days in presence of AR antagonist MDV by Celltiter-Glo luminescence assay; type: functional, cell-based; conditions: dose microM 1-10, time 14.0 day
# VCaP [5] = assay: Effect on full-length AR mRNA level in human VCaP cells at 10 uM after 24 hrs by RT-qPCR analysis; type: functional, cell-based
# [6] = target: T1, RNA-binding protein 39 (Homo sapiens) (UniProt Q14498); assay: Induction of RBM39 degradation in human VCaP cells assessed as AR splicing modulation by measuring reduction in AR-V7 splice variant mRNA transcript level incubated for 24 hrs in presence of AR antagonist MDV by RT-qPCR analysis; type: cell-based
# T1 sequence (whole entry): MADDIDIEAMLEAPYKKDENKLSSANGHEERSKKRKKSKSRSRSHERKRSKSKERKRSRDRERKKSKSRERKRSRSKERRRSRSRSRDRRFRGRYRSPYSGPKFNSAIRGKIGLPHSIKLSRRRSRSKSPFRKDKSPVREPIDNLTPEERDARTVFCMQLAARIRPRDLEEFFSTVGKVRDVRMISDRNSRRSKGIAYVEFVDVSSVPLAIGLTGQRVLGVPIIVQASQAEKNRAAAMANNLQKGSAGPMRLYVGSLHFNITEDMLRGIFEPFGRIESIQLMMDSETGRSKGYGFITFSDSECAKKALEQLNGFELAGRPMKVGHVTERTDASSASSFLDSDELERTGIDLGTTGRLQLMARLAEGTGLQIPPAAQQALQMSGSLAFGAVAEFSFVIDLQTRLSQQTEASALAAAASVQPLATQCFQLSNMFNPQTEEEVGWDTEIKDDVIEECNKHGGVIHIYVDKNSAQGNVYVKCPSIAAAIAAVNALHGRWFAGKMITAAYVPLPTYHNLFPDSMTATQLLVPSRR
# Mus musculus [7] = assay: Reduction in RBM39 level in tumor lysates of NSG mouse xenografted with human VCaP cells at 10 mg/kg, po co-administered with 25 mg/kg AR antagonist MDV via gavage with 5 days on and 2 days off dosing schedule for 6 weeks by immunoblot analysis; type: functional, organism-based; conditions: Neoplasm
# Mus musculus [8] = assay: Reduction in total AR isoforms in tumor lysates of NSG mouse xenografted with human VCaP cells at 10 mg/kg, po co-administered with 25 mg/kg AR antagonist MDV via gavage with 5 days on and 2 days off dosing schedule for 6 weeks by immunoblot analysis; type: functional, organism-based; conditions: Neoplasm
# [9] = target: T1, RNA-binding protein 39 (Homo sapiens); assay: Induction of RBM39 degradation in human VCaP cells assessed as reduction in AR-V7 protein expression preincubated for 24 hrs with DHT followed by wash-out and incubated with compound for 24 hrs in presence of AR antagonist MDV by western blot analysis; type: cell-based
# [10] = target: T1, RNA-binding protein 39 (Homo sapiens); assay: Induction of RBM39 degradation in human VCaP cells assessed as reduction in RBM39 protein expression at 10 uM preincubated for 24 hrs with DHT followed by wash-out and incubated with compound for 24 hrs in presence of AR antagonist MDV by western blot analysis; type: cell-based
# VCaP [11] = assay: Effect on MDV-induced recovery of DHT-suppressed full length AR mRNA expression in human VCaP cells at 10 uM preincubated for 24 hrs with DHT followed by wash-out and then incubated with compound for 24 hrs in presence of AR antagonist , MDV by RT-qPCR analysis; type: functional, cell-based
# VCaP [12] = assay: Antitumor activity against human VCaP cells xenografted in NSG mouse assessed as tumor volume at 10 mg/kg, po administered via gavage with 5 days on and 2 days off dosing schedule for 6 weeks and measured bi-weekly for 6 weeks; type: functional
# Mus musculus [13] = assay: Reduction in RBM39 level in tumor lysates of NSG mouse xenografted with human VCaP cells at 10 mg/kg, po administered via gavage with 5 days on and 2 days off dosing schedule for 6 weeks by immunoblot analysis; type: functional, organism-based; conditions: Neoplasm
# VCaP [14] = assay: Antitumor activity against human VCaP cells xenografted in NSG mouse assessed as tumor volume at 10 mg/kg, po co-administered with 25 mg/kg AR antagonist MDV via gavage with 5 days on and 2 days off dosing schedule for 6 weeks and measured bi-weekly for 6 weeks (reference value: 698.9 +/-286.5 […]); type: functional
# Mus musculus [15] = assay: Reduction in AR-V7 level in tumor lysates of NSG mouse xenografted with human VCaP cells at 10 mg/kg, po administered via gavage with 5 days on and 2 days off dosing schedule for 6 weeks by immunoblot analysis; type: functional, organism-based; conditions: Neoplasm
# [16] = target: T2, Androgen receptor (Homo sapiens) (UniProt P10275); assay: Antagonist activity at AR in human VCaP cells assessed as upregulation of DHT-suppressed AR-V7 mRNA transcript level at 10 uM preincubated for 24 hrs with DHT followed by wash-out and then incubated with compound for 24 hrs by RT-qPCR analysis; type: cell-based
# T2 sequence (whole entry): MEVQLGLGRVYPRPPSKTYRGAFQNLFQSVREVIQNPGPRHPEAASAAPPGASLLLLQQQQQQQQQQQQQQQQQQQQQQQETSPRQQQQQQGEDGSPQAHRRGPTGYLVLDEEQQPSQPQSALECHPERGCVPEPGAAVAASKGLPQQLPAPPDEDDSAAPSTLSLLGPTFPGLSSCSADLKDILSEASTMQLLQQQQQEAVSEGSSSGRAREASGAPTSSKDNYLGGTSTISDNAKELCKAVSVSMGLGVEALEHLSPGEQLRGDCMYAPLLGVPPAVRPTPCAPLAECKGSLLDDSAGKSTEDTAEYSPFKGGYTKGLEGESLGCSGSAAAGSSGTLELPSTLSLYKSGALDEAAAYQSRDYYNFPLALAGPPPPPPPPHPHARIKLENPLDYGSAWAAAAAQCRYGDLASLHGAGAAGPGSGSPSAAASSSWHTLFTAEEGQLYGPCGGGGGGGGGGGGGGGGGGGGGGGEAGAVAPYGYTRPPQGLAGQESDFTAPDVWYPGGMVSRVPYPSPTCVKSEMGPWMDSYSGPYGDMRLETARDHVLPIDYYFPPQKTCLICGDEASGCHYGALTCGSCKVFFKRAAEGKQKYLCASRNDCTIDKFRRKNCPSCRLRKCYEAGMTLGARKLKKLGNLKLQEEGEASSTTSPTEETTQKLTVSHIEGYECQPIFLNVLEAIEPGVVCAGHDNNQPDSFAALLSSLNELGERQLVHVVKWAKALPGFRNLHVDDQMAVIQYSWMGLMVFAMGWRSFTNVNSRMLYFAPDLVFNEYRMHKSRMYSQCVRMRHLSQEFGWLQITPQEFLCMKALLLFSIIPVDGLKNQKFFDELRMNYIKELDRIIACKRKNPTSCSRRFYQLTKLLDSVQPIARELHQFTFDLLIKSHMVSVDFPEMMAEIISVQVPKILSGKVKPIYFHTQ
# [17] = target: T1, RNA-binding protein 39 (Homo sapiens); assay: Induction of RBM39 degradation in human VCaP cells assessed as reduction in RBM39 protein expression preincubated for 24 hrs with DHT followed by wash-out and incubated with compound for 24 hrs in presence of AR antagonist MDV by western blot analysis; type: cell-based
smiles,measurement,setting,value
NS(=O)(=O)c1ccc(S(=O)(=O)Nc2cccc3c(Cl)c[nH]c23)cc1 [INDISULAM],inhibition,Mus musculus [1],Active
same,inhibition,Mus musculus [2],Active
same,Activity,VCaP [3],Active
same,Activity,VCaP [4],Active
same,Activity,VCaP [5],inactive
same,Activity,[6],Dose-dependent effect
same,inhibition,Mus musculus [7],inactive
same,inhibition,Mus musculus [8],Active
same,Activity,[9],Dose-dependent effect
same,Activity,[10],Active
same,Activity,VCaP [11],inactive
same,Activity,VCaP [12],152 mm3
same,inhibition,Mus musculus [13],Active
same,Activity,VCaP [14],409 mm3
same,inhibition,Mus musculus [15],Active
same,Activity,[16],inactive
same,Activity,[17],Dose-dependent effect
